Here are results for 29 molecules from ChEMBL document CHEMBL1782019, “Pyridones as glucokinase activators: identification of a unique metabolic liability of the 4-sulfonyl-2-pyridone heterocycle” (Bioorg Med Chem Lett, 2009).

The nature of series [1]: Hepatic clearance in human liver microsome at 1 uM by LC/MS/MS analysis. It is filed as ADME. The conditions noted are these: liver microsomes. (In general: Microsomes from liver hold many membrane-bound enzymes, among them those of drug oxidation.)
A further series has as its target T1, Hexokinase-4 (Homo sapiens, UniProt P35557).
T1 sequence (P35557 whole entry): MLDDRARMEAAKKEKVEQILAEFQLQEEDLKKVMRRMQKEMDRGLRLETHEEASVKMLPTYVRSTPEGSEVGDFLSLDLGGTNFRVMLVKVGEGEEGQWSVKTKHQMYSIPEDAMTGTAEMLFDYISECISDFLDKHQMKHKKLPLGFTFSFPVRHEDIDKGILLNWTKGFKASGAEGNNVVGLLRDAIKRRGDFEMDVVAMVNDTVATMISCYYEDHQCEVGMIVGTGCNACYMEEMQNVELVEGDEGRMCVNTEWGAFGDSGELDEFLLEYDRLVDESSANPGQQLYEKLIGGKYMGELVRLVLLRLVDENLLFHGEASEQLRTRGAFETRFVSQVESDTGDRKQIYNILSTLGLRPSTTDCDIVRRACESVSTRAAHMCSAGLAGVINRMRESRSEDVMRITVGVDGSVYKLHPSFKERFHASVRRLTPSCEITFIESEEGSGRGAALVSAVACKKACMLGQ

Series [2] in a line: Hepatic clearance in rat liver microsome at 1 uM by LC/MS/MS analysis. The series is classed as ADME. The conditions noted are these: liver microsomes.
Series [3] is described as follows: Half life in Sprague-Dawley rat at 0.5 mg/kg, iv and 5 mg/kg, po. The following applies: in vivo. The series is classed as ADME, organism-based.
Series [4] is described as follows: Half life in rat liver microsome at 1 uM by LC/MS/MS analysis. It is filed as ADME. The following applies: liver microsomes.
The nature of series [5]: Half life in human liver microsome at 1 uM by LC/MS/MS analysis. It is filed as ADME. The conditions noted are these: liver microsomes.
A short description of series [6]: Clearance in Sprague-Dawley rat at 0.5 mg/kg, iv and 5 mg/kg, po. It is filed as ADME, organism-based. The following applies: in vivo.
Series [7] is described as follows: Bioavailability in Sprague-Dawley rat at 0.5 mg/kg, iv and 5 mg/kg, po. The series is classed as ADME, organism-based. The conditions noted are these: in vivo.
Series [8] can be described thus: Fraction unbound in Sprague-Dawley rat at 0.5 mg/kg, iv and 5 mg/kg, po. The following applies: plasma. It is filed as ADME, organism-based.

pEC50: −log10 of the molar value.

Description for Hexokinase-4: Activation of human recombinant glucokinase using 6.5 mM glucose by spectrophotometry

A word on the pEC50: it is −log10 of the EC50, conventionally taken in molar units. A high value points to a small EC50. One may read the half-life as how long it takes for the measured level to halve. Read a high half-life as slow loss. What is called bioavailability is the share of a dose that reaches the circulation, judged against a reference dose that is usually intravenous. The term fraction unbound denotes the share of the substance not bound to proteins or other matrix. Read a low fraction unbound as little free substance. Consider `Cc1cnc(NC(=O)[C@H](CC2CCCC2)n2ccc(S(C)(=O)=O)cc2=O)cn1`, for which the CLhep predicted at 1 µM was less than 5 mL/min/kg in series [1] and 31 mL/min/kg in [2]. Besides, the pEC50 at Hexokinase-4 is 5.46. The molecule further showed a half-life in [3] of 12 min. For the same molecule, the figures for the half-life at 1 µM in series [4] and in [5] were 56 min and more than 120 min, respectively. The molecule also came in with a clearance in [6] of 337 mL/min/kg. For the same molecule, in series [7], the bioavailability turned out to be 2%. The same molecule had an unbound share (fraction unbound) in series [8] of 0.35.

In turn, `Cc1ccc(NC(=O)[C@H](CC(C)C)n2ccc(S(=O)(=O)C(C)C)cc2=O)nc1` showed a pEC50 at Hexokinase-4 of 6.29.

Take `Cc1csc(NC(=O)c2cc(Sc3nccn3C)c(F)cc2N)n1`: on Hexokinase-4, the pEC50 was 6.21.

For the molecule `Cc1ccc(NC(=O)[C@H](CC2CCCC2)n2ccc(S(C)(=O)=O)cc2=O)nc1`, the results for the CLhep predicted at 1 µM in [1] and in series [2] were 5 mL/min/kg and 58 mL/min/kg, respectively. The pEC50 on Hexokinase-4 is 6.25. For the same molecule, the half-life at 1 µM in series [4] was 9 min; in series [5], more than 120 min.

At Hexokinase-4, `CCS(=O)(=O)c1ccn([C@@H](CC2CCCC2)C(=O)Nc2ccc(C)cn2)c(=O)c1` gave a pEC50 of 6.30.

Take `Cc1ccc(NC(=O)[C@H](CC2CCCC2)n2ccc(S(=O)(=O)C(C)C)cc2=O)nc1`: the negative logarithm of the EC50 (pEC50) on Hexokinase-4 was 6.64.

The molecule `Cc1ccc(NC(=O)[C@H](CC2CCCC2)n2ccc(S(=O)(=O)C3CC3)cc2=O)nc1` had a pEC50 on Hexokinase-4 of 6.96.

Molecule `Cc1ccc(NC(=O)[C@H](CC2CCCC2)n2ccc(S(=O)(=O)C3CCC3)cc2=O)nc1` gave a pEC50 on Hexokinase-4 of 7.22.

In turn, `Cc1ccc(NC(=O)[C@H](CC2CCCC2)n2cc(Cl)c(S(C)(=O)=O)cc2=O)nc1` showed a pEC50 at Hexokinase-4 of 6.32.

On Hexokinase-4, `Cc1ccc(NC(=O)[C@H](CC2CCCC2)n2cc(C)c(S(C)(=O)=O)cc2=O)nc1` had a pEC50 of 6.36.

On Hexokinase-4, `Cc1ccc(NC(=O)[C@H](CC2CCCC2)n2cc(Cl)c(S(=O)(=O)C(C)C)cc2=O)nc1` had a negative-log EC50 (pEC50) of 6.59.

At Hexokinase-4, `Cc1ccc(NC(=O)[C@H](CC2CCCC2)n2cc(C)c(S(=O)(=O)C(C)C)cc2=O)nc1` gave a pEC50 of 6.80.

As for `Cc1ccc(NC(=O)[C@H](CC2CCCC2)n2ccc(S(=O)(=O)C(C)C)c(Cl)c2=O)nc1`, the pEC50 on Hexokinase-4 is 7.15.

Turning to `Cc1ccc(NC(=O)[C@H](CC2CCC2)n2ccc(S(=O)(=O)C(C)C)cc2=O)nc1`, the pEC50 on Hexokinase-4 is 6.17.

On to `Cc1ccc(NC(=O)[C@H](CC2CCCCC2)n2ccc(S(=O)(=O)C(C)C)cc2=O)nc1`, for which, at Hexokinase-4, the pEC50 was 6.62.

Consider `Cc1ccc(NC(=O)[C@H](CC2CCC(F)(F)CC2)n2ccc(S(=O)(=O)C(C)C)cc2=O)nc1`, for which the CLhep predicted at 1 µM in [1] was 8 mL/min/kg; in [2], 36 mL/min/kg. Also, on Hexokinase-4, the pEC50 is 6.80. Moreover, the half-life at 1 µM worked out at 42 min in series [4] and 73 min in series [5].

Consider `CCS(=O)(=O)c1ccn([C@@H](CC2CCOCC2)C(=O)Nc2ccc(C)cn2)c(=O)c1`, for which the results for the CLhep predicted at 1 µM in series [1] and in series [2] were less than 5 mL/min/kg and less than 18 mL/min/kg, respectively. This molecule also had a pEC50 on Hexokinase-4 of 5.82. Moreover, the half-life at 1 µM in series [4] and in [5] was more than 120 min in each case.

`Cc1ccc(NC(=O)[C@H](Cc2ccccc2)n2ccc(S(=O)(=O)C(C)C)cc2=O)nc1` showed a pEC50 on Hexokinase-4 of 5.48.

On to `CC(C)S(=O)(=O)c1ccn([C@@H](CC2CCCC2)C(=O)Nc2ccccn2)c(=O)c1`, for which, on Hexokinase-4, the pEC50 was 6.22.

`CC(C)S(=O)(=O)c1ccn([C@@H](CC2CCCC2)C(=O)Nc2ccc(C(F)(F)F)cn2)c(=O)c1` gave a pEC50 on Hexokinase-4 of 6.48.

`CS(=O)(=O)c1cc(=O)n([C@@H](CC2CCCC2)C(=O)Nc2ccc(Cl)cn2)cc1Cl`: the pEC50 at Hexokinase-4 was 6.85.

With `O=C(Nc1cnccn1)[C@H](CC1CCCC1)n1ccc(S(=O)(=O)C2CC2)cc1=O`, on Hexokinase-4, the pEC50 is 5.89.

Molecule `O=C(Nc1cnccn1)[C@H](CC1CCCC1)n1ccc(S(=O)(=O)C2CCC2)cc1=O` gave a pEC50 at Hexokinase-4 of 6.23.

Take `Cc1cnc(NC(=O)[C@H](CC2CCCC2)n2cc(Cl)c(S(=O)(=O)C(C)C)cc2=O)cn1`: on Hexokinase-4, the pEC50 is 6.15.

For the molecule `CC(C)S(=O)(=O)c1ccn([C@@H](CC2CCCC2)C(=O)Nc2cc[nH]n2)c(=O)c1`, at Hexokinase-4, the pEC50 was 6.14.

On to `CC(C)S(=O)(=O)c1ccn([C@@H](CC2CCCC2)C(=O)Nc2ccn(C)n2)c(=O)c1`, for which the values for the CLhep predicted at 1 µM in [1] and in series [2] were 10 mL/min/kg and 58 mL/min/kg, respectively. The molecule also gave a pEC50 at Hexokinase-4 of 6.04. In [3], this molecule showed a half-life of 12 min. Moreover, the figures for the half-life at 1 µM in [4] and in series [5] were 8 min and 93 min, respectively. Besides, the clearance in series [6] was determined as 164 mL/min/kg. In series [7], this molecule had a bioavailability of 8%. Moreover, the fraction unbound in [8] came to 0.59.

The molecule `Cn1ccc(NC(=O)[C@H](CC2CCCC2)n2ccc(S(=O)(=O)C3CC3)cc2=O)n1` showed a pEC50 on Hexokinase-4 of 5.82.

For `Cn1ccc(NC(=O)[C@H](CC2CCCC2)n2ccc(S(=O)(=O)C3CCC3)cc2=O)n1`, at Hexokinase-4, the negative-log EC50 (pEC50) was 6.59.

As to `CC(C)S(=O)(=O)c1ccn([C@@H](CC2CCCC2)C(=O)Nc2nccs2)c(=O)c1`, at Hexokinase-4, the pEC50 was 5.89.
